Experimental data as given in PMC9447987, “Long-term memory CD8^+ T cells specific for SARS-CoV-2 in individuals who received the BNT162b2 mRNA vaccine” (Nature Communications, 2022).
Where two headings read alike, the source gives them in different places.

Legend:
HLA-A*24:02 = HLA-A*24:02 (Homo sapiens, UniProt P04439, D101N/D140Y/D185E/E176V/E190D/F33S/G103R/G107R/I119L/I121M/I306V/K335N/L105A/L180Q/L300P/N151K/N90K/Q86E/Q94H/R106L/R138H/R89G/T104I/T345S/V100E/W191G/Y123F); assay: HLA stabilization assay using RMA-S-A2402 cells; assay type: binding; conditions: RMA-S-A2402 cells
[1] = test system: HLA-A*24:02-restricted CD8+ T cells; assay type: cell-based, human; conditions: for IFN-γ-producing cells among CD8+ T cells (Fig. 1f): bulk T cells
[2] = 14 vaccinated individuals, second time point 11–22 weeks after the first point of analysis

VYSSANNCTF [S-VYF10]
MFI, HLA-A2402 (APC), representative staining (HLA-A*24:02; Suppl. Fig. 3b (for Fig. 4a, 4b), peptide(-) 14.8, 26 °C (Maximum) 32.7): 26.9
MFI, HLA-A2402 (APC), representative staining (HLA-A*24:02; Suppl. Fig. 3c (for Fig. 4c), peptide(-) 11.7, 26 °C (Maximum) 28.9): 32.7
number of individuals with specific T cells at both time points [1, 2]: two
number of individuals with specific T cells at only the first time point [1, 2]: one
IFNg-producing cells among CD8 T cells (%) ([1]; Fig.6a, donor U-32, 1.430 weeks since 2nd dose of vaccination): 0.080%
IFNg-producing cells among CD8 T cells (%) ([1]; Fig.6a, donor U-32, 15.290 weeks since 2nd dose of vaccination): 0.000%
IFNg-producing cells among CD8 T cells (%) ([1]; Fig.6a, donor V1, 19.000 weeks since 2nd dose of vaccination): 0.000%
IFNg-producing cells among CD8 T cells (%) ([1]; Fig.6a, donor V1, 31.710 weeks since 2nd dose of vaccination): 0.710%
IFNg-producing cells among CD8 T cells (%) ([1]; Fig.6a, donor V2, 9.570 weeks since 2nd dose of vaccination): 0.330%
IFNg-producing cells among CD8 T cells (%) ([1]; Fig.6a, donor V2, 31.570 weeks since 2nd dose of vaccination): 0.000%
IFNg-producing cells among CD8 T cells (%) ([1]; Fig.6a, donor V5, 10.570 weeks since 2nd dose of vaccination): 0.000%
IFNg-producing cells among CD8 T cells (%) ([1]; Fig.6a, donor V5, 31.710 weeks since 2nd dose of vaccination): 1.030%
IFNg-producing cells among CD8 T cells (%) ([1]; Fig.6a, donor V6, 9.570 weeks since 2nd dose of vaccination): 0.590%
IFNg-producing cells among CD8 T cells (%) ([1]; Fig.6a, donor V6, 31.000 weeks since 2nd dose of vaccination): 0.930%
IFNg-producing cells among CD8 T cells (%) ([1]; Fig.6a, donor V7, 10.140 weeks since 2nd dose of vaccination): 0.000%
IFNg-producing cells among CD8 T cells (%) ([1]; Fig.6a, donor V7, 31.140 weeks since 2nd dose of vaccination): 0.470%
IFNg-producing cells among CD8 T cells (%) ([1]; Fig.6a, donor V8, 9.860 weeks since 2nd dose of vaccination): 0.000%
IFNg-producing cells among CD8 T cells (%) ([1]; Fig.6a, donor V8, 30.140 weeks since 2nd dose of vaccination): 0.160%
IFNg-producing cells among CD8 T cells (%) ([1]; Fig.6a, donor V9, 20.570 weeks since 2nd dose of vaccination): 0.000%
IFNg-producing cells among CD8 T cells (%) ([1]; Fig.6a, donor V9, 31.570 weeks since 2nd dose of vaccination): 0.930%
IFNg-producing cells among CD8 T cells (%) ([1]; Fig.6a, donor V12, 1.000 weeks since 2nd dose of vaccination): 0.000%
IFNg-producing cells among CD8 T cells (%) ([1]; Fig.6a, donor V12, 9.290 weeks since 2nd dose of vaccination): 0.000%
IFNg-producing cells among CD8 T cells (%) ([1]; Fig.6a, donor V13, 9.000 weeks since 2nd dose of vaccination): 2.650%
IFNg-producing cells among CD8 T cells (%) ([1]; Fig.6a, donor V13, 30.290 weeks since 2nd dose of vaccination): 3.770%
IFNg-producing cells among CD8 T cells (%) ([1]; Fig.6a, donor V14, 2.000 weeks since 2nd dose of vaccination): 1.600%
IFNg-producing cells among CD8 T cells (%) ([1]; Fig.6a, donor V14, 17.000 weeks since 2nd dose of vaccination): 1.540%
IFNg-producing cells among CD8 T cells (%) ([1]; Fig.6a, donor V15, 6.860 weeks since 2nd dose of vaccination): 0.000%
IFNg-producing cells among CD8 T cells (%) ([1]; Fig.6a, donor V15, 25.860 weeks since 2nd dose of vaccination): 0.380%
IFNg-producing cells among CD8 T cells (%) ([1]; Fig.6a, donor V16, 8.860 weeks since 2nd dose of vaccination): 1.180%
IFNg-producing cells among CD8 T cells (%) ([1]; Fig.6a, donor V16, 22.710 weeks since 2nd dose of vaccination): 0.000%
IFNg-producing cells among CD8 T cells (%) ([1]; Fig.6a, donor V17, 4.140 weeks since 2nd dose of vaccination): 0.000%
IFNg-producing cells among CD8 T cells (%) ([1]; Fig.6a, donor V17, 18.000 weeks since 2nd dose of vaccination): 0.000%
IFNg-producing cells among CD8 T cells (%) ([1]; convalescent donor C2, 45.290 weeks since PCR-confirmed diagnosis, […], peptide-pulsed C1R-A2402): 1.019%
IFNg-producing cells among CD8 T cells (%) ([1]; convalescent donor C3, 2.430 weeks since PCR-confirmed diagnosis, […], peptide-pulsed C1R-A2402): 0.261%
IFNg-producing cells among CD8 T cells (%) ([1]; convalescent donor C4, 35.000 weeks since PCR-confirmed diagnosis, […], peptide-pulsed C1R-A2402): 0.317%
IFNg-producing cells among CD8 T cells (%) ([1]; convalescent donor C5, 41.430 weeks since PCR-confirmed diagnosis, […], peptide-pulsed C1R-A2402): 0.327%
IFNg-producing cells among CD8 T cells (%) ([1]; convalescent donor C6, 20.000 weeks since PCR-confirmed diagnosis, […], peptide-pulsed C1R-A2402): 1.170%
IFNg-producing cells among CD8 T cells (%) ([1]; convalescent donor C7, 21.710 weeks since PCR-confirmed diagnosis, […], peptide-pulsed C1R-A2402): 0.230%
IFNg-producing cells among CD8 T cells (%) ([1]; convalescent donor C8, 47.860 weeks since PCR-confirmed diagnosis, […], peptide-pulsed C1R-A2402): 0.410%
IFNg-producing cells among CD8 T cells (%) ([1]; convalescent donor C9, 21.860 weeks since PCR-confirmed diagnosis, […], peptide-pulsed C1R-A2402): 0.000%
IFNg-producing cells among CD8 T cells (%) ([1]; convalescent donor C10, 24.570 weeks since PCR-confirmed diagnosis, […], peptide-pulsed C1R-A2402): 1.220%
IFNg-producing cells among CD8 T cells (%) ([1]; convalescent donor C11, 24.290 weeks since PCR-confirmed diagnosis, […], peptide-pulsed C1R-A2402): 0.000%
IFN-γ-producing cells among CD8+ T cells (Fig. 1f) ([1]; donor V10, 0 weeks since 1st dose of vaccination, C1R-A2402 pre-pulsed with 1 μM peptide): 1.450%
IFN-γ-producing cells among CD8+ T cells (Fig. 1f) ([1]; donor V10, 3 weeks since 1st dose of vaccination, C1R-A2402 pre-pulsed with 1 μM peptide): 0.420%
IFN-γ-producing cells among CD8+ T cells (Fig. 1f) ([1]; donor V10, 5 weeks since 1st dose of vaccination, C1R-A2402 pre-pulsed with 1 μM peptide): 0.290%
IFN-γ-producing cells among CD8+ T cells (Fig. 1f) ([1]; donor V10, 7 weeks since 1st dose of vaccination, C1R-A2402 pre-pulsed with 1 μM peptide): 0.000%
IFN-γ-producing cells among CD8+ T cells (Fig. 1f) ([1]; donor V12, 0 weeks since 1st dose of vaccination, C1R-A2402 pre-pulsed with 1 μM peptide): 0.310%
IFN-γ-producing cells among CD8+ T cells (Fig. 1f) ([1]; donor V12, 3 weeks since 1st dose of vaccination, C1R-A2402 pre-pulsed with 1 μM peptide): 0.000%
IFN-γ-producing cells among CD8+ T cells (Fig. 1f) ([1]; donor V12, 5 weeks since 1st dose of vaccination, C1R-A2402 pre-pulsed with 1 μM peptide): 0.540%
IFN-γ-producing cells among CD8+ T cells (Fig. 1f) ([1]; donor V12, 7 weeks since 1st dose of vaccination, C1R-A2402 pre-pulsed with 1 μM peptide): 0.000%
IFN-γ-producing cells among CD8+ T cells (Fig. 1f) ([1]; donor V14, 0 weeks since 1st dose of vaccination, C1R-A2402 pre-pulsed with 1 μM peptide): 0.000%
IFN-γ-producing cells among CD8+ T cells (Fig. 1f) ([1]; donor V14, 2 weeks since 1st dose of vaccination, C1R-A2402 pre-pulsed with 1 μM peptide): 0.000%
IFN-γ-producing cells among CD8+ T cells (Fig. 1f) ([1]; donor V14, 5 weeks since 1st dose of vaccination, C1R-A2402 pre-pulsed with 1 μM peptide): 1.580%
IFN-γ-producing cells among CD8+ T cells (Fig. 1f) ([1]; donor V14, 7 weeks since 1st dose of vaccination, C1R-A2402 pre-pulsed with 1 μM peptide): 0.000%
number of individuals with specific T cells after the second vaccine dose ([1]; longitudinal analysis of 3 vaccinated individuals): one
Freq of responder (%) ([1]; of 17 vaccinated HLA-A*24:02+ individuals (Fig. 4b)): 23.5%
IFNg-producing cells among CD8 T cells (%) ([1]; vaccinated donor V1, 19.000 weeks since 2nd dose, […], C1R-A2402 pre-pulsed with 1 μM peptide): 0%
IFNg-producing cells among CD8 T cells (%) ([1]; vaccinated donor V2, 9.570 weeks since 2nd dose, […], C1R-A2402 pre-pulsed with 1 μM peptide): 0.331%
IFNg-producing cells among CD8 T cells (%) ([1]; vaccinated donor V3, 8.860 weeks since 2nd dose, […], C1R-A2402 pre-pulsed with 1 μM peptide): 0.073%
IFNg-producing cells among CD8 T cells (%) ([1]; vaccinated donor V4, 10.430 weeks since 2nd dose, […], C1R-A2402 pre-pulsed with 1 μM peptide): 2.41%
IFNg-producing cells among CD8 T cells (%) ([1]; vaccinated donor V5, 10.570 weeks since 2nd dose, […], C1R-A2402 pre-pulsed with 1 μM peptide): 0%
IFNg-producing cells among CD8 T cells (%) ([1]; vaccinated donor V6, 9.570 weeks since 2nd dose, […], C1R-A2402 pre-pulsed with 1 μM peptide): 0.593%
IFNg-producing cells among CD8 T cells (%) ([1]; vaccinated donor V7, 10.140 weeks since 2nd dose, […], C1R-A2402 pre-pulsed with 1 μM peptide): 0%
IFNg-producing cells among CD8 T cells (%) ([1]; vaccinated donor V8, 9.860 weeks since 2nd dose, […], C1R-A2402 pre-pulsed with 1 μM peptide): 0%
IFNg-producing cells among CD8 T cells (%) ([1]; vaccinated donor V9, 20.570 weeks since 2nd dose, […], C1R-A2402 pre-pulsed with 1 μM peptide): 0%
IFNg-producing cells among CD8 T cells (%) ([1]; vaccinated donor V10, 2.000 weeks since 2nd dose, […], C1R-A2402 pre-pulsed with 1 μM peptide): 0.3%
IFNg-producing cells among CD8 T cells (%) ([1]; vaccinated donor V11, 1.430 weeks since 2nd dose, […], C1R-A2402 pre-pulsed with 1 μM peptide): 0.076%
IFNg-producing cells among CD8 T cells (%) ([1]; vaccinated donor V12, 1.000 weeks since 2nd dose, […], C1R-A2402 pre-pulsed with 1 μM peptide): 0%
IFNg-producing cells among CD8 T cells (%) ([1]; vaccinated donor V13, 9.000 weeks since 2nd dose, […], C1R-A2402 pre-pulsed with 1 μM peptide): 2.649%
IFNg-producing cells among CD8 T cells (%) ([1]; vaccinated donor V14, 2.000 weeks since 2nd dose, […], C1R-A2402 pre-pulsed with 1 μM peptide): 1.601%
IFNg-producing cells among CD8 T cells (%) ([1]; vaccinated donor V15, 6.860 weeks since 2nd dose, […], C1R-A2402 pre-pulsed with 1 μM peptide): 0%
IFNg-producing cells among CD8 T cells (%) ([1]; vaccinated donor V16, 8.860 weeks since 2nd dose, […], C1R-A2402 pre-pulsed with 1 μM peptide): 1.178%
IFNg-producing cells among CD8 T cells (%) ([1]; vaccinated donor V17, 4.140 weeks since 2nd dose, […], C1R-A2402 pre-pulsed with 1 μM peptide): 0%
time after the second vaccine dose for which epitope-specific memory CD8+ T cells were detectable / maintained ([1]; vaccinated individuals (8 individuals)): > 30 weeks
